Molecular target: T1, F508del (Homo sapiens, UniProt P13569, DEL508-508)
T1 construct: expressed in transfected cells
Assay: Protocol 1: membrane potential optical assay (FLIPR III, voltage sensing dye), identification of potentiator compounds
Assay type: cell-based
Details: Table 3, compounds of Table 1
In short: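 Membrane potential in forskolin-activated, temperature-rescued F508del NIH 3T3 cells is followed with a voltage-sensing dye on FLIPR III. A chloride ion gradient created at the single addition step provides the driving force, after prior compound treatment.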

T1 sequence (P13569 with tags, fused parts or gaps DEL508-508): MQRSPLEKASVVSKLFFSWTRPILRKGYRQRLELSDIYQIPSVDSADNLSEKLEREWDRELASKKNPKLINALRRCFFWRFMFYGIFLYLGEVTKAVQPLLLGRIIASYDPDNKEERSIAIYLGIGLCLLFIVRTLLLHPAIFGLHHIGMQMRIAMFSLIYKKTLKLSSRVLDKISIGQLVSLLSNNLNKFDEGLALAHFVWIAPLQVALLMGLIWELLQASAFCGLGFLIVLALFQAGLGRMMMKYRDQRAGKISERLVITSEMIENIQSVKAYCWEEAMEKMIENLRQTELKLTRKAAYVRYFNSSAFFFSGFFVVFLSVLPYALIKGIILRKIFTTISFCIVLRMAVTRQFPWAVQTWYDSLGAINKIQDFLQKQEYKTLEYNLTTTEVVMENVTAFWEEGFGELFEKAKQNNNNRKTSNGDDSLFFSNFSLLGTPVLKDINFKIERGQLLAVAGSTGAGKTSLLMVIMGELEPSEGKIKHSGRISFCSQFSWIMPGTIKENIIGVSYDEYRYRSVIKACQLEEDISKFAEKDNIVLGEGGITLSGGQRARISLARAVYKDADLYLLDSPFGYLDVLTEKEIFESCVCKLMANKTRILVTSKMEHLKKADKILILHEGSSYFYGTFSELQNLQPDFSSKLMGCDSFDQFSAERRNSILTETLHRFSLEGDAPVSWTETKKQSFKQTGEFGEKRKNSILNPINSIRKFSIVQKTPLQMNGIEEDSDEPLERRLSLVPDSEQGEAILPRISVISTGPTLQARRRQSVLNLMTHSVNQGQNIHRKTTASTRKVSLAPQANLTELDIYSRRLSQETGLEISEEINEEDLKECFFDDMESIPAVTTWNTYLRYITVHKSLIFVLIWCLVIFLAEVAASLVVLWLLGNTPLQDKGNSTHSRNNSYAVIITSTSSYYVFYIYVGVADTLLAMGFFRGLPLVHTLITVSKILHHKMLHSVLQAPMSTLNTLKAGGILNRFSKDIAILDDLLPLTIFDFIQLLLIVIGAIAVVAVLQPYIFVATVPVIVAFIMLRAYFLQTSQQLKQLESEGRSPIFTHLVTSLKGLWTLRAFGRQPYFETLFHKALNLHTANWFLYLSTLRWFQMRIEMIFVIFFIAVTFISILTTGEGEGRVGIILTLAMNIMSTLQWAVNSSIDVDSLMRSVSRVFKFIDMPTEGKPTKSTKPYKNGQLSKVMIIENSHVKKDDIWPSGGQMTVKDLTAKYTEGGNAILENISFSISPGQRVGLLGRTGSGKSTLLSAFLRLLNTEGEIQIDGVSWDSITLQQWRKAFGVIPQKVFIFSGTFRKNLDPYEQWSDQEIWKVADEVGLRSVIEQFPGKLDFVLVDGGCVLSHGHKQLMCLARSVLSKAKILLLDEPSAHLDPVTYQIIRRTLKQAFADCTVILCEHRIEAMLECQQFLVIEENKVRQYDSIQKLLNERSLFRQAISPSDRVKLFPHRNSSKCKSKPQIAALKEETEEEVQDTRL

Row | Structure (SMILES) | EC30
1 | Cc1cc(-c2ccc(C(=O)NS(=O)(=O)c3cccc(N)n3)c(N3C[C@@H](C)CC3(C)C)n2)cnc1OCC(C)C [Compound 1741, N-[(6-amino-2-pyridyl)sulfonyl]-6-(6-isobutoxy-5-methyl-3-pyridyl)-2-[(4S)-2,2,4-trimethylpyrrolidin-1-yl]pyridine-3-carboxamide] | +++ (“+++” means <3 uM)
2 | CCOCCOc1ccn(-c2ccc(C(=O)NS(=O)(=O)c3cccnc3N)c(N3C[C@@H](C)CC3(C)C)n2)n1 [Compound 1742, N-[(2-amino-3-pyridyl)sulfonyl]-6-[3-(2-ethoxyethoxy)pyrazol-1-yl]-2-[(4S)-2,2,4-trimethylpyrrolidin-1-yl]pyridine-3-carboxamide] | +++ (“+++” means <3 uM)
3 | Cc1cn(-c2ccc(C(=O)NS(=O)(=O)c3ccc[nH]c3=O)c(N3C[C@@H](C)CC3(C)C)n2)nc1OCC(C)C [Compound 1743, 6-(3-isobutoxy-4-methyl-pyrazol-1-yl)-N-[(2-oxo-1H-pyridin-3-yl)sulfonyl]-2-[(4S)-2,2,4-trimethylpyrrolidin-1-yl]pyridine-3-carboxamide] | +++ (“+++” means <3 uM)
4 | COc1cc(C(C)=O)ccc1Oc1cccc(S(=O)(=O)NC(=O)c2cccnc2N2CC(C)CC2(C)C)n1 (centres unmarked) [Compound 1744, N—[[6-(4-acetyl-2-methoxy-phenoxy)-2-pyridyl]sulfonyl]-2-(2,2,4-trimethylpyrrolidin-1-yl)pyridine-3-carboxamide] | ++ (“++” means between 3 uM and 10 uM)
5 | CCOc1cc(C)cc(-c2ccc(C(=O)NS(=O)(=O)c3ccc[nH]c3=O)c(N3C[C@@H](C)CC3(C)C)n2)n1 [Compound 1745, 6-(6-ethoxy-4-methyl-2-pyridyl)-N-[(2-oxo-1H-pyridin-3-yl)sulfonyl]-2-[(4S)-2,2,4-trimethylpyrrolidin-1-yl]pyridine-3-carboxamide] | +++ (“+++” means <3 uM)
6 | CC(C)COc1cc(F)cc(-c2ccc(C(=O)NS(=O)(=O)c3cccc(N)n3)c(N3CC4(CC4)CC3(C)C)n2)c1 [Compound 1746, N-[(6-amino-2-pyridyl)sulfonyl]-2-(5,5-dimethyl-6-azaspiro[2.4]heptan-6-yl)-6-(3-fluoro-5-isobutoxy-phenyl)pyridine-3-carboxamide] | +++ (“+++” means <3 uM)
7 | COc1ccc(-c2ccc(C(=O)NS(=O)(=O)c3cccnc3N)c(N3C[C@@H](C)CC3(C)C)n2)cc1C [Compound 1747, N-[(2-amino-3-pyridyl)sulfonyl]-6-(4-methoxy-3-methyl-phenyl)-2-[(4S)-2,2,4-trimethylpyrrolidin-1-yl]pyridine-3-carboxamide] | +++ (“+++” means <3 uM)
8 | COc1cc(-c2ccc(C(=O)NS(=O)(=O)c3cccc(N)n3)c(N3C[C@@H](C)CC3(C)C)n2)cc(C)n1 [Compound 1748, N-[(6-amino-2-pyridyl)sulfonyl]-6-(2-methoxy-6-methyl-4-pyridyl)-2-[(4S)-2,2,4-trimethylpyrrolidin-1-yl]pyridine-3-carboxamide] | +++ (“+++” means <3 uM)
9 | CC1CC(C)CN(c2cccc(S(=O)(=O)NC(=O)c3cccnc3N3CC(C)CC3(C)C)n2)C1 (centres unmarked) [Compound 1749, N—[[6-(3,5-dimethyl-1-piperidyl)-2-pyridyl]sulfonyl]-2-(2,2,4-trimethylpyrrolidin-1-yl)pyridine-3-carboxamide] | +++ (“+++” means <3 uM)
10 | CC(C)COc1cc(F)cc(-c2ccc(C(=O)NS(=O)(=O)c3ccc(O)cc3)c(N3C[C@@H](C)CC3(C)C)n2)c1 [Compound 1750, 6-(3-fluoro-5-isobutoxy-phenyl)-N-(4-hydroxyphenyl)sulfonyl-2-[(4S)-2,2,4-trimethylpyrrolidin-1-yl]pyridine-3-carboxamide] | +++ (“+++” means <3 uM)
11 | CC1CN(c2ncccc2C(=O)NS(=O)(=O)c2cccc(Oc3cccc4ccccc34)n2)C(C)(C)C1 (centres unmarked) [Compound 1751, N—[[6-(1-naphthyloxy)-2-pyridyl]sulfonyl]-2-(2,2,4-trimethylpyrrolidin-1-yl)pyridine-3-carboxamide] | +++ (“+++” means <3 uM)
12 | COc1ccc(OC)c(-c2ccc(C(=O)NS(=O)(=O)c3ccc[nH]c3=O)c(N3C[C@@H](C)CC3(C)C)n2)c1 [Compound 1752, 6-(2,5-dimethoxyphenyl)-N-[(2-oxo-1H-pyridin-3-yl)sulfonyl]-2-[(4S)-2,2,4-trimethylpyrrolidin-1-yl]pyridine-3-carboxamide] | ++ (“++” means between 3 uM and 10 uM)
13 | C#CCOc1cccc(S(=O)(=O)NC(=O)c2cccnc2N2CC(C)CC2(C)C)n1 (centres unmarked) [Compound 1753, N-[(6-prop-2-ynoxy-2-pyridyl)sulfonyl]-2-(2,2,4-trimethylpyrrolidin-1-yl)pyridine-3-carboxamide] | ++ (“++” means between 3 uM and 10 uM)
14 | CC(C)COc1cc(F)cc(-c2ccc(C(=O)NS(=O)(=O)c3cccc(N)n3)c(N3CC(C)CC34CC4)n2)c1 (centres unmarked) [Compound 1754, N-[(6-amino-2-pyridyl)sulfonyl]-6-(3-fluoro-5-isobutoxy-phenyl)-2-(5-methyl-7-azaspiro[2.4]heptan-7-yl)pyridine-3-carboxamide] | +++ (“+++” means <3 uM)
15 | CC1CN(c2ncccc2C(=O)NS(=O)(=O)c2cccc(N3CCCC(c4ccccc4)C3)n2)C(C)(C)C1 (centres unmarked) [Compound 1755, N—[[6-(3-phenyl-1-piperidyl)-2-pyridyl]sulfonyl]-2-(2,2,4-trimethylpyrrolidin-1-yl)pyridine-3-carboxamide] | ++ (“++” means between 3 uM and 10 uM)
16 | CC1CN(c2ncccc2C(=O)NS(=O)(=O)c2cccc(Nc3ccc(C(C)(C)C)cc3)n2)C(C)(C)C1 (centres unmarked) [Compound 1756, N—[[6-(4-tert-butylanilino)-2-pyridyl]sulfonyl]-2-(2,2,4-trimethylpyrrolidin-1-yl)pyridine-3-carboxamide] | +++ (“+++” means <3 uM)
17 | CC1CN(c2ncccc2C(=O)NS(=O)(=O)c2cccc(Nc3ccc(N(C)C)cc3)n2)C(C)(C)C1 (centres unmarked) [Compound 1757, N—[[6-[4-(dimethylamino)anilino]-2-pyridyl]sulfonyl]-2-(2,2,4-trimethylpyrrolidin-1-yl)pyridine-3-carboxamide] | +++ (“+++” means <3 uM)
18 | Cc1cn(-c2ccc(C(=O)NS(=O)(=O)c3cccnc3N)c(N3C[C@@H](C)CC3(C)C)n2)nc1OCC(C)C [Compound 1758, N-[(2-amino-3-pyridyl)sulfonyl]-6-(3-isobutoxy-4-methyl-pyrazol-1-yl)-2-[(4S)-2,2,4-trimethylpyrrolidin-1-yl]pyridine-3-carboxamide] | +++ (“+++” means <3 uM)
19 | Cc1cc2c(cc1-c1cnc(N3CC(C)CC3(C)C)c(C(=O)NS(=O)(=O)c3cccc(N)n3)c1)C(C)(C)CCC2(C)C (centres unmarked) [Compound 1759, N-[(6-amino-2-pyridyl)sulfonyl]-5-(1,1,4,4,7-pentamethyltetralin-6-yl)-2-(2,2,4-trimethylpyrrolidin-1-yl)pyridine-3-carboxamide] | +++ (“+++” means <3 uM)
20 | CC(C)COc1cnn(-c2ccc(C(=O)NS(=O)(=O)c3ccc[nH]c3=O)c(N3C[C@@H](C)CC3(C)C)n2)c1 [Compound 1760, 6-(4-isobutoxypyrazol-1-yl)-N-[(2-oxo-1H-pyridin-3-yl)sulfonyl]-2-[(4S)-2,2,4-trimethylpyrrolidin-1-yl]pyridine-3-carboxamide] | ++ (“++” means between 3 uM and 10 uM)

— patent US10758534B2 (Vertex Pharmaceuticals Incorporated, priority 2014, dated 2020)
